{
  "source": "patent US20150284399A1",
  "about": "“PROCESSES FOR THE PREPARATION OF S1P1 RECEPTOR MODULATORS AND CRYSTALLINE FORMS THEREOF” (Arena Pharmaceuticals, Inc., priority 2010, published 2015)",
  "key": {"[1]": {"experiment": "Dynamic moisture sorption (DMS)", "format": "physicochemical", "settings": "crystalline form", "protocol": "Samples are prepared for dynamic moisture-sorption analysis by placing ˜5 mg to ˜20 mg of compound in a tarred sample holder on the VTI balance. The instrument is a dynamic moisture-sorption analyzer, VTI Corporation, SGA-100. A drying step is run at 40° C. and ˜1% RH for 1 h. The isotherm temperature is 25° C. A % weight change over 10 min (5 weight readings) of dm/dt=0.010 or 2 h, whichever occurs first, is required before continuing to the next step. The water content of the sample equilibrated as described above was determined from 30% RH to 90% RH and then back down to 10% RH."}, "[2]": {"settings": "organ transplantation; cited from earlier work"}, "[3]": {"tested_on": "rat cardiac allograft model", "settings": "cited from earlier work"}, "keratinocytes": {"tested_on": "keratinocytes", "settings": "Kim et al. 2004; cited from earlier work"}, "[4]": {"tested_on": "type I diabetic vascular endothelium", "settings": "Whetzel et al. 2006; cited from earlier work"}, "vasculature": {"tested_on": "vasculature", "settings": "Bolick et al. 2005; cited from earlier work"}, "rat skin allograft model": {"tested_on": "rat skin allograft model", "settings": "monotherapy; cited from earlier work"}, "[5]": {"tested_on": "rat renal allograft model", "settings": "combination with mycophenolate mofetil (MMF); cited from earlier work"}, "[6]": {"tested_on": "rat model for autoimmune myocarditis", "settings": "cited from earlier work"}, "S1P4 receptor": {"biological_target": "T1, S1P4 receptor (Homo sapiens, UniProt O95977)", "T1 sequence (O95977 1-384)": "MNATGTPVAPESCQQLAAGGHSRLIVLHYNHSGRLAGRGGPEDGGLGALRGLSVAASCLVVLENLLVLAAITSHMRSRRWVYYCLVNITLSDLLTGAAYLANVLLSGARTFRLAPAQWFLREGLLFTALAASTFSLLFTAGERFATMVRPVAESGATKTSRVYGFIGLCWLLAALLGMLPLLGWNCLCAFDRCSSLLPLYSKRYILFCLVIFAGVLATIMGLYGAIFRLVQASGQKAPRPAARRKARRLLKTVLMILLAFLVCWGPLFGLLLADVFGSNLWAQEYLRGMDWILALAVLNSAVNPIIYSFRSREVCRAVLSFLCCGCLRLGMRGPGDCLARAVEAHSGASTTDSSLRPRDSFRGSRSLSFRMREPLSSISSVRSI", "settings": "Chiba 2005; cited from earlier work"}, "S1P5 receptor": {"biological_target": "S1P5 receptor (Homo sapiens, UniProt Q9H228)", "sequence (Q9H228 whole entry)": "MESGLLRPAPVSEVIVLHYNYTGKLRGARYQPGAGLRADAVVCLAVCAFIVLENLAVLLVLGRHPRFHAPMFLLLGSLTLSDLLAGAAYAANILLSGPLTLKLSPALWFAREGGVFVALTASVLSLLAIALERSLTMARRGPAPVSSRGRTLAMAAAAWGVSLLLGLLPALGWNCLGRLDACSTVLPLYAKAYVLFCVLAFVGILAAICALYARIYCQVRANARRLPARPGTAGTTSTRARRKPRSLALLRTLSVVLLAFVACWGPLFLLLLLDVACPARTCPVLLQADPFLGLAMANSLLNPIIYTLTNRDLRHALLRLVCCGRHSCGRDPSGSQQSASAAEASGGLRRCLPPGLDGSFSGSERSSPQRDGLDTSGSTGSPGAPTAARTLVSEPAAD", "settings": "Chiba 2005; cited from earlier work"}, "S1P2 receptor": {"biological_target": "S1P2 receptor (Homo sapiens, UniProt O95136)", "sequence (O95136 whole entry)": "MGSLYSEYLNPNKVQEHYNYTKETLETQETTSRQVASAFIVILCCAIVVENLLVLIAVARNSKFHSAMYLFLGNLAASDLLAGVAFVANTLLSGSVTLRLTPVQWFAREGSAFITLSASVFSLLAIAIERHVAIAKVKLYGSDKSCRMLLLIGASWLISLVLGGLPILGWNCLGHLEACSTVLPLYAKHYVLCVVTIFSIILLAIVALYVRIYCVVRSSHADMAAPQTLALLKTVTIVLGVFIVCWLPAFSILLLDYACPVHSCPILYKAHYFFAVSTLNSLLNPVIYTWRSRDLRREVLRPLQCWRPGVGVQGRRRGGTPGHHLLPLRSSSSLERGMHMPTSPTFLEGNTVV", "settings": "Chiba 2005; cited from earlier work"}, "Female C57BL/6 mice": {"tested_on": "Female C57BL/6 mice", "experiment": "MOG-induced experimental autoimmune encephalomyelitis (EAE) in mice", "format": "in vivo, mouse", "settings": "oral, once a day from day 3 until day 21; 0.1, 0.3 and 1.0 mg/kg; vs vehicle; FIG. 17"}, "Male BALB/c mice": {"tested_on": "Male BALB/c mice", "experiment": "Mouse Peripheral Lymphocyte Lowering (PLL) assay", "format": "in vivo", "settings": "0.300 mg/kg oral dose in 0.5% methyl cellulose in water; 5 hours post-dose; vs vehicle; FIG. 15", "protocol": "Male BALB/c mice (Charles River Laboratories, Wilmington, Mass.) were housed four per cage and maintained in a humidity-controlled (40 to 60%) and temperature-controlled (68 to 72° F.) facility on a 12 h: 12 h light/dark cycle (lights on at 6:30 am) with free access to food (Harlan Teklad, Orange, Calif., Rodent Diet 8604) and water. Mice were allowed (approximately) one week of habituation to the animal facility before testing.\nMice were given a 0.300 mg/kg oral dose of (R)-2-(9-chloro-7-(4-isopropoxy-3-(trifluoromethyl)benzyloxy)-2,3-dihydro-1H-pyrrolo[1,2-a]indol-1-yl)acetic acid L-lysine salt or dosing vehicle (0.5% methyl cellulose in water) in a total volume of 10 mL/kg. Peripheral blood samples were collected at 5 hours post-dose. The mice were anesthetized with isoflurane and blood was collected via cardiac puncture. A complete cell count (CBC), including lymphocyte count, was obtained using a CELL-DYN® 3700 (Abbott Laboratories, Abbott Park, Ill.) instrument. Results are presented in FIG. 15, in which peripheral blood lymphocyte (PBL) count is shown for the 5 hour group."}, "[7]": {"settings": "attributed to agonism of the S1P3 receptor; cited from earlier work"}, "human islet cells": {"tested_on": "human islet cells", "settings": "cited from earlier work"}, "[8]": {"settings": "unlike cyclosporin A, FK506 and RAD; cited from earlier work"}},
  "note": "Where two headings read alike, the source gives them in different places.",
  "data": [
    {"molecule": "CC(C)Oc1ccc(COc2ccc3c(c2)c(Cl)c2n3CC[C@@H]2CC(=O)[O-])cc1C(F)(F)F.O.[Na+]", "note": "[(R)-2-(9-chloro-7-(4-isopropoxy-3-(trifluoromethyl)benzyloxy)-2,3-dihydro-1H-pyrrolo[1,2-a]indol-1-yl)acetic acid sodium salt hydrate]", "values": [
      {"measurement": "DMS weight gain at about 90% relative humidity", "setting": "[1]; from about 30% RH to about 90% RH at 25° C.", "value": "FIG. 9: gains about 2.5% weight at about 90% relative humidity"}
    ]},
    {"molecule": "C=CC[C@@H]1/C=C(\\C)C[C@H](C)C[C@H](OC)[C@H]2O[C@@](O)(C(=O)C(=O)N3CCCC[C@H]3C(=O)O[C@H](/C(C)=C/[C@@H]3CC[C@@H](O)[C@H](OC)C3)[C@H](C)[C@@H](O)CC1=O)[C@H](C)C[C@@H]2OC", "note": "[FK506]", "values": [
      {"measurement": "undesirable side effects", "setting": "[2]", "value": "nephrotoxicity, neurotoxicity, β-cell toxicity and gastrointestinal discomfort"}
    ]},
    {"molecule": "O=C(O)CCNCc1ccc2sc(-c3ccc(-c4ccccc4)c(C(F)(F)F)c3)cc2c1", "note": "[AUY954]", "values": [
      {"measurement": "prolonging allograft survival", "setting": "[3]; combination with a subtherapeutic dose of RAD001", "value": "can prolong rat cardiac allograft survival"}
    ]},
    {"molecule": "CCCCCCCCCCCCC/C=C/[C@@H](O)[C@@H](N)COP(=O)(O)O", "note": "[Compound S1P, sphingosine-1-phosphate]", "values": [
      {"measurement": "keratinocyte proliferation", "setting": "keratinocytes", "value": "inhibits keratinocyte proliferation"}
    ]},
    {"molecule": "FC(F)(F)c1cccc(-c2noc(-c3cc(-c4ccccc4)c(C(F)(F)F)s3)n2)c1", "note": "[SEW2871]", "values": [
      {"measurement": "proinflammatory monocyte/endothelial interactions", "setting": "[4]", "value": "prevents proinflammatory monocyte/endothelial interactions"},
      {"measurement": "protection against TNFα-mediated monocyte/endothelial interactions", "setting": "vasculature", "value": "protects the vasculature against TNFα-mediated monocyte/endothelial interactions"}
    ]},
    {"molecule": "CC(C)Oc1ccc(COc2ccc3c(c2)c(Cl)c2n3CC[C@@H]2CC(=O)O)cc1C(F)(F)F.NCCN.O", "note": "[(R)-2-(9-chloro-7-(4-isopropoxy-3-(trifluoromethyl)benzyloxy)-2,3-dihydro-1H-pyrrolo[1,2-a]indol-1-yl)acetic acid ethylenediamine salt hydrate]", "values": [
      {"measurement": "DMS weight gain after adsorption cycle to about 90% RH followed by desorption cycle back to about 10% RH", "setting": "[1]", "value": "25° C.; gains less than about 1.5% weight after undergoing"}
    ]},
    {"molecule": "NC(CO)(CO)CCc1ccc(Sc2cccc(OCc3ccccc3)c2)cc1Cl", "note": "[KRP-203]", "values": [
      {"measurement": "prolonging allograft survival", "setting": "rat skin allograft model", "value": "therapeutic efficacy for prolonging allograft survival"},
      {"measurement": "prolonging allograft survival", "setting": "[5]", "value": "therapeutic efficacy in combination with mycophenolate mofetil"},
      {"measurement": "prolonging allograft survival", "setting": "[3]; combination with cyclosporin A", "value": "synergistic combination with cyclosporin A"},
      {"measurement": "prolonging allograft survival", "setting": "[3]; combination with mycophenolate mofetil (MMF)", "value": "therapeutic efficacy in combination with mycophenolate mofetil"},
      {"measurement": "prolonging allograft survival", "setting": "[3]; monotherapy", "value": "therapeutic efficacy for prolonging allograft survival"},
      {"measurement": "therapeutic efficacy", "setting": "[6]", "value": "therapeutic efficacy"}
    ]},
    {"molecule": "CCCCCCCCc1ccc(CCC(N)(CO)COP(=O)(O)O)cc1", "note": "(centres unmarked) [phosphorylated derivative]", "values": [
      {"measurement": "agonist activity on S1P4 receptor", "setting": "S1P4 receptor", "value": "agonist"},
      {"measurement": "agonist activity on S1P5 receptor", "setting": "S1P5 receptor", "value": "agonist"},
      {"measurement": "agonist activity on S1P2 receptor", "setting": "S1P2 receptor", "value": "not the S1P2 receptor"}
    ]},
    {"molecule": "(R)-2-(9-Chloro-7-(4-isopropoxy-3-(trifluoromethyl)benzyloxy)-2,3-dihydro-1H-pyrrolo[1,2-a]indol-1-yl)acetic acid L-lysine salt", "values": [
      {"measurement": "reduction of the severity of disease symptoms (clinical score) in EAE", "setting": "Female C57BL/6 mice", "value": "exhibits therapeutic efficacy in EAE"},
      {"measurement": "peripheral blood lymphocyte (PBL) lowering (lymphopenia)", "setting": "Male BALB/c mice", "value": "exhibited activity for inducing PBL lowering (lymphopenia)"},
      {"measurement": "DMS weight gain at a 90% RH hold", "setting": "[1]; 90% RH hold at 25° C.", "value": "FIG. 6: gains less than about 2.2% weight at a 90% RH hold at"},
      {"measurement": "DMS weight gain after adsorption cycle to about 90% RH followed by desorption cycle back to about 10% RH", "setting": "[1]", "value": "25° C.; gains less than about 0.25% weight after undergoing a"}
    ]},
    {"molecule": "CCCCCCCCc1ccc(CCC(N)(CO)CO)cc1", "note": "[FTY720, fingolimod]", "values": [
      {"measurement": "adverse event in clinical trials", "setting": "[7]", "value": "transient asymptomatic bradycardia"},
      {"measurement": "effects on human islet function", "setting": "human islet cells", "value": "no detrimental effects on human islet function"},
      {"measurement": "general immunosuppression while prolonging graft survival", "setting": "[8]", "value": "without inducing general immunosuppression"}
    ]}
  ]
}
